Reference: US8691827B2, “Amino tetrahydro-pyridopyrimidine PDE10 inhibitors” (Merck Sharp & Dohme Corp., priority 2009, dated 2014)

target: human PDE10A2 (Homo sapiens (Human), UniProt Q9Y233); assay: PDE10 fluorescence polarization (IMAP FP) inhibition assay; type: biochemical; conditions: FAM-labeled cAMP 50 nM, room temperature, read-out: PDE10A Ki
Procedure: The activity of the compounds in accordance with the present invention as PDE10 inhibitors may be readily determined without undue experimentation using a fluorescence polarization (FP) methodology that is well known in the art (Huang, W., et al., J. Biomol Screen, 2002, 7: 215).
In a typical experiment the PDE10 inhibitory activity of the compounds of the present invention was determined in accordance with the following experimental method. PDE10A2 was amplified from human fetal brain cDNA (Clontech, Mountain View, Calif.) using a forward primer corresponding to nucleotides 56-77 of human PDE10A2 (Accession No. AF127480, Genbank Identifier 4894716), containing a Kozak consensus sequence, and a reverse primer corresponding to nucleotides 2406-2413 of human PDE10A2 (Accession No. AF127480, Genbank Identifier 4894716). Amplification with Easy-A polymerase (Stratagene, La Jolla, Calif.) was 95° C. for 2 minutes followed by thirty three cycles of 95° C. for 40 seconds, 55° C. for 30 seconds, and 72° C. for 2 minutes 48 seconds. Final extension was 72° C. for 7 minutes. The PCR product was TA cloned into pcDNA3.2-TOPO (Invitrogen, Carlsbad, Calif.) according to standard protocol. AD293 cells with 70-80% confluency were transiently transfected with human PDE10A2/pcDNA3.2-TOPO using Lipofectamine 2000 according to manufacturer specifications (Invitrogen, Carlsbad, Calif.). Cells were harvested 48 hours post-transfection and lysed by sonication (setting 3, 10×5 sec pulses) in a buffer containing 20 mM HEPES, 1 mM EDTA and protease inhibitor cocktail (Roche). Lysate was collected by centrifugation at 75,000×g for 20 minutes. Supernatant containing the cytoplasmic fraction was used for evaluation of PDE10A2 activity. The fluorescence polarization assay for cyclic nucleotide phosphodiesterases was performed using an IMAP® FP kit supplied by Molecular Devices, Sunnyvale, Calif. (product # R8139). IMAP® technology has been applied previously to phosphodiesterase assays (Huang, W., et al., J. Biomol Screen, 2002, 7: 215). Assays were performed at room temperature in 384-well microtiter plates with an incubation volume of 20.2 μL. Solutions of test compounds were prepared in DMSO and serially diluted with DMSO to yield 8 μL of each of 10 solutions differing by 3-fold in concentration, at 32 serial dilutions per plate. 100% inhibition is determined using a known PDE10 inhibitor, which can be any compound that is present at 5,000 times its Ki value in the assay described as follows, such as papaverine (see Siuciak, et al. Neuropharmacology (2006) 51:386-396; Becker, et al. Behav Brain Res (2008) 186(2):155-60; Threlfell, et al., J Pharmacol Exp Ther (2009) 328(3):785-795), 2-{4-[pyridin-4-yl-1-(2,2,2-trifluoroethyl)-1H-pyrazol-3-yl]phenoxymethyl}quinoline succinic acid or 2-[4-(1-methyl-4-pyridin-4-yl-1H-pyrazol-3-yl)-phenoxymethyl]quinoline succinic acid (see Schmidt, et al. J Pharmacol Exp Ther (2008) 325:681-690; Threlfell, et al., J Pharmacol Exp Ther (2009) 328(3): 785-795). 0% of inhibition is determined by using DMSO (1% final concentrations). A Labcyte Echo 555 (Labcyte, Sunnyvale, Calif.) is used to dispense 200 nL from each well of the titration plate to the 384 well assay plate. A solution of enzyme ( 1/1600 dilution from aliquots; sufficient to produce 20% substrate conversion) and a separate solution of FAM-labeled cAMP PDE from Molecular Devices (product # R7506), at a final concentration of 50 nM are made in the assay buffer (10 mM Tris HCl, pH 7.2, 10 mM MgCl2, 0.05% NaN3 0.01% Tween-20, and 1 mM DTT). The enzyme and the substrate are then added to the assay plates in two consecutive additions of 10 μL, and then shaken to mix. The reaction is allowed to proceed at room temperature for 30 minutes. A binding solution is then made from the kit components, comprised of 80% Solution A, 20% Solution B and binding reagent at a volume of 1/600 the total binding solution. […]

Chain of human PDE10A2 (Q9Y233 267-1055): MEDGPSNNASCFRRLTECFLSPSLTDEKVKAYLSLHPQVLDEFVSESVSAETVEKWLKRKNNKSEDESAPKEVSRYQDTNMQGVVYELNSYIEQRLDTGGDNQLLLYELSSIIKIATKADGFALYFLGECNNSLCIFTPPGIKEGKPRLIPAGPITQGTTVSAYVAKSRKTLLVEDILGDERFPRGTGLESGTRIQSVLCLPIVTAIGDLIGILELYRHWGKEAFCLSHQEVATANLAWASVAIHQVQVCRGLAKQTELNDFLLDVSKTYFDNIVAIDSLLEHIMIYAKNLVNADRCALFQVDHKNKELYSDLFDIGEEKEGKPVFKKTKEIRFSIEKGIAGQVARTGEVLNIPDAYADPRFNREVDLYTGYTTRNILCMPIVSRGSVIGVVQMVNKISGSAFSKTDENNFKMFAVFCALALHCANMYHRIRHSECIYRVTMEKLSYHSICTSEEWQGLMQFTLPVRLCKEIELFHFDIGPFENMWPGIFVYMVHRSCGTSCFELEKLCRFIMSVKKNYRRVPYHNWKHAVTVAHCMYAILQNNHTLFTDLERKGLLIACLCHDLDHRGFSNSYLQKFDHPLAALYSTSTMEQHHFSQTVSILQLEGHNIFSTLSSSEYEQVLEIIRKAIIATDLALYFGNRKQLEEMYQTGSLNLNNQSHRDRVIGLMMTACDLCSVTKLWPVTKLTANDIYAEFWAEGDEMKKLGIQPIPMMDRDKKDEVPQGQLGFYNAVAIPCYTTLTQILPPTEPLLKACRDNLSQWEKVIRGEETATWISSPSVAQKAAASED

SMILES	Ki [nM]
O=C(Nc1ccccc1)N1CCc2nc(-c3ccncc3)nc(NCCc3ccccn3)c2C1 [Compound 1-1, N-phenyl-2-pyridin-4-yl-4-[(2-pyridin-2-ylethyl)amino]-7,8-dihydropyrido[4,3-d]pyrimidine-6(5H)-carboxamide]	47.9
COc1cccc(C2CN(c3nc(-c4cccnc4)nc4c3CN(C(=O)Nc3ccccc3)CC4)CCN2)c1 (stereo not drawn) [Compound 1-4, 4-[3-(3-methoxyphenyl)-piperazin-1-yl]-N-phenyl-2-pyridin-3-yl-7,8-dihydropyrido[4,3-d]pyrimidine-6(5H)-carboxamide]	153
COC(=O)NCCNc1nc(-c2cccnc2)nc2c1CN(C(=O)Nc1ccccc1)CC2 [Compound 1-5, methyl-(2-{[6-(anilinocarbonyl)-2-pyridin-3-yl-5,6,7,8-tetrahydropyrido[4,3-d]pyrimidin-4-yl]amino}ethyl)carbamate]	95.3
O=C(Nc1ccccc1)N1CCc2nc(-c3ccc(F)nc3)nc(NCCc3ccccn3)c2C1 [Compound 1-6, 2-(6-fluoropyridin-3-yl)-N-phenyl-4-[(2-pyridin-2-ylethyl)amino]-7,8-dihydropyrido[4,3-d]pyrimidine-6(5H)-carboxamide]	114
CC(C)CC(=O)N1CCc2nc(-c3cncc(-c4cncnc4)c3)nc(N(C)Cc3ccccc3)c2C1 [Compound 1-7, 1-{4-[benzyl(methyl)amino]-2-[5-(pyrimidin-5-yl)pyridin-3-yl[-7,8-dihydropyrido]4,3-d]pyrimidin-6(5H)-yl}-3-methylbutan-1-one]	63
O=C(Nc1ccccc1)N1CCc2nc(-c3cccnc3)nc(NCc3c[nH]c(-c4ccccc4)n3)c2C1 [Compound 1-9, N-phenyl-4-{[(2-phenyl-1H-imidazol-4-yl)methyl]amino}-2-(pyridin-3-yl)-7,8-dihydropyrido[4,3-d]pyrimidine-6(5H)-carboxamide]	2.19

Further compounds by falling Ki, results first:

Ki [nM]	SMILES
192	O=C(Nc1ccccc1)N1CCc2nc(-c3ccncc3)nc(NCc3ccccn3)c2C1 [Compound 1-2, N-phenyl-2-pyridin-4-yl-4-[(pyridin-2-ylmethyl)amino]-7,8-dihydropyrido[4,3-d]pyrimidine-6(5H)-carboxamide]
162	O=C(Nc1ccccc1)N1CCc2nc(-c3ccncc3)nc(N3CCc4ccncc4C3)c2C1 [Compound 1-3, 4-(3,4-dihydro-2,7-naphthyridin-2(1H)-yl)-N-phenyl-2-pyridin-4-yl-7,8-dihydropyrido[4,3-d]pyrimidine-6(5H)-carboxamide]
15	CC(C)CC(=O)N1CCc2nc(-c3cncc(-c4cn[nH]c4)c3)nc(N(C)Cc3ccccc3)c2C1 [Compound 1-8, 1-{4-[benzyl(methyl)amino]-2-[5-(1H-pyrazol-4-yl)pyridin-3-yl]-7,8-dihydropyrido[4,3-d]pyrimidin-6(5H)-yl}-3-methylbutan-1-one]
